According to patent publication US10112929B2, “Lactams as inhibitors of rock” (BRISTOL-MYERS SQUIBB COMPANY, priority 2015, dated 2018):
Structures can show the parent of a compound that is named as a salt.
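Note: rho kinase enzyme reaction halted with EDTA, phospho- and non-phospho peptide separated for read-out, kinase activity inhibition derived across a dose-response series, DMSO under 2%.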

Each compound was assayed against ROCK2 (Homo sapiens (Human), UniProt O75116) (assay: biochemical).
Chain of ROCK2 (O75116 whole entry, species assumed): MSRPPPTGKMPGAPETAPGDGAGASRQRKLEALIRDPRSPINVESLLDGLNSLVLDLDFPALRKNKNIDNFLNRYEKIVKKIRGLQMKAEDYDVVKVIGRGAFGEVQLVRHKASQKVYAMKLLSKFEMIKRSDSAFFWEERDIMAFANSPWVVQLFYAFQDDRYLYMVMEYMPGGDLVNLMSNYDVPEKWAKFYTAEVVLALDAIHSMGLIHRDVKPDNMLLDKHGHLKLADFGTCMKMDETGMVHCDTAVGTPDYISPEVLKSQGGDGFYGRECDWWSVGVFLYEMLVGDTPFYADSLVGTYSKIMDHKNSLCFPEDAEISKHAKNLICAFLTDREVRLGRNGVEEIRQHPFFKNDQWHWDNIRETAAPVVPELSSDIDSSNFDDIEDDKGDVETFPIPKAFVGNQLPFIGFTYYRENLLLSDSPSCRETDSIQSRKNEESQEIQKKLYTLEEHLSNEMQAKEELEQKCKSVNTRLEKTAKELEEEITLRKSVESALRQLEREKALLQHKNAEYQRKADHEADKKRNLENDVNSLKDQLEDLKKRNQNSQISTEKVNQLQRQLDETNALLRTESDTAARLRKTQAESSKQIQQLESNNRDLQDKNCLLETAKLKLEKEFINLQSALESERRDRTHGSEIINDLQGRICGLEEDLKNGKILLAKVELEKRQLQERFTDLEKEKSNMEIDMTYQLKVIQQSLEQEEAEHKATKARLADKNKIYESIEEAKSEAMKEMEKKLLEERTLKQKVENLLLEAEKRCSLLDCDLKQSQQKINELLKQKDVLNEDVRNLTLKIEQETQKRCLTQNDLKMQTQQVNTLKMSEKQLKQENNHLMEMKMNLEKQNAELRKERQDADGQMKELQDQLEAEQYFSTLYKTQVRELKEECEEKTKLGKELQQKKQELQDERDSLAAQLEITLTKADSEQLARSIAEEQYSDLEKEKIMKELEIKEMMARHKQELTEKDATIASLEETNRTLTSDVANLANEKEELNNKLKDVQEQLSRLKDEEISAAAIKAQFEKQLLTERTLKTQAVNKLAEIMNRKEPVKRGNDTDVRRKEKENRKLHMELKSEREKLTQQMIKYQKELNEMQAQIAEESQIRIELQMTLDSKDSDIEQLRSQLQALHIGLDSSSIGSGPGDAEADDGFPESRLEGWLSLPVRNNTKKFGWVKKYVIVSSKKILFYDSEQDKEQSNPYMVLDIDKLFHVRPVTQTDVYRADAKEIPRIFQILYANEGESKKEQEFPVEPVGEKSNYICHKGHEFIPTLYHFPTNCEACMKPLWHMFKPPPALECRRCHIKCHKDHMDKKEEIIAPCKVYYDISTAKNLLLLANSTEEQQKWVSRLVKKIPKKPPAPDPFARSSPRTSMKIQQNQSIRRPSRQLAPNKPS
`COc1cc(NC2CCN(c3ccc(-c4cn[nH]c4)nc3)C2=O)ccc1F` (single isomer, unassigned) [Example 299, 1-(6-(1H-pyrazol-4-yl)pyridin-3-yl)-3-((4-fluoro-3-methoxyphenyl)amino)pyrrolidin-2-one] was tested, and the IC50 was 10 to 100 nM. With `COc1cccc(NC2CCN(c3ccc(-c4ccnc(N)n4)cc3)C2=O)c1` (single isomer, unassigned) [Example 78, 1-(4-(2-aminopyrimidin-4-yl)phenyl)-3-((3-methoxyphenyl)amino)pyrrolidin-2-one] the IC50 was 10 to 100 nM. Compound `COc1cccc(NC2CCN(c3ncc(-c4cn[nH]c4)c(OC)n3)C2=O)c1` (centres unmarked) [Example 132, 1-(4-Methoxy-5-(1H-pyrazol-4-yl)pyrimidin-2-yl)-3-((3-methoxyphenyl)amino) pyrrolidin-2-one] has an IC50 of 10 to 100 nM. Work on `COc1cccc(OC2CCN(c3ccc(-c4cn[nH]c4)cc3)C2=O)c1` (centres unmarked) [Example 108, 1-(4-(1H-Pyrazol-4-yl)phenyl)-3-(3-methoxyphenoxy)pyrrolidin-2-one, TFA] yielded an IC50 of 10 to 100 nM. `COc1cc(F)cc(NC2CCN(c3ccc(-c4cn[nH]c4)c(F)c3F)C2=O)c1` (single isomer, unassigned) [Example 309, 1-(2,3-difluoro-4-(1H-pyrazol-4-yl)phenyl)-3-((3-fluoro-5-methoxyphenyl)amino)pyrrolidin-2-one] was tested, and the IC50 was 10 to 100 nM. For `O=C1C(Cc2ccc(F)cc2)CCN1c1ccc(-c2cn[nH]c2)cc1` (centres unmarked) [Example 98, 1-(4-(1H-pyrazol-4-yl)phenyl)-3-(4-fluorobenzyl)pyrrolidin-2-one], the IC50 was 100 to 2200 nM. Compound `COCc1cc(N2CCC(Nc3ccc(F)c(OC)c3)C2=O)ccc1-c1cn[nH]c1` (single isomer, unassigned) [Example 181, 3-((4-fluoro-3-methoxyphenyl)amino)-1-(3-(methoxymethyl)-4-(1H-pyrazol-4-yl)phenyl)pyrrolidin-2-one] has an IC50 of 100 to 2200 nM. `COc1cccc(NC2CCN(c3ccc(-c4cn[nH]c4)c(C(F)F)c3)C2=O)c1` (single isomer, unassigned) [Example 175, 1-(3-(difluoromethyl)-4-(1H-pyrazol-4-yl)phenyl)-3-((3-methoxyphenyl)amino) pyrrolidin-2-one] gave an IC50 of 100 to 2200 nM. In the case of `O=C1C(Nc2cccc(F)c2F)CCN1c1ccc(-c2cn[nH]c2)cc1` (single isomer, unassigned) [Example 23, 1-(4-(1H-pyrazol-4-yl)phenyl)-3-((2,3-difluorophenyl)amino)pyrrolidin-2-one], the IC50 is reported as < 10 nM. With `COc1cccc(NC2CCN(c3ccc(-c4cn[nH]c4)c(C4CC4)c3)C2=O)c1` (single isomer, unassigned) [Example 363, 1-(3-cyclopropyl-4-(1H-pyrazol-4-yl)phenyl)-3-((3-methoxyphenyl)amino) pyrrolidin-2-one] the IC50 was 10 to 100 nM. With `COc1cc(F)cc(OC2CCN(c3ccc(-c4cn[nH]c4)c(OC)n3)C2=O)c1` (single isomer, unassigned) [Example 173, 3-(3-fluoro-5-methoxyphenoxy)-1-(6-methoxy-5-(1H-pyrazol-4-yl)pyridin-2-yl)pyrrolidin-2-one] the IC50 was < 10 nM. `COc1cc(NC2CCN(c3ccc(-c4cn[nH]c4)cc3)C2=O)cc(OC)c1` (single isomer, unassigned) [Example 21, 1-(4-(1H-pyrazol-4-yl)phenyl)-3-((3,5-dimethoxyphenyl)amino)pyrrolidin-2-one] showed an IC50 of 100 to 2200 nM. Work on `COc1ccc(F)c(NC2CCN(c3ccc(-c4cn[nH]c4)cc3F)C2=O)c1` (single isomer, unassigned) [Example 341, 1-(2-fluoro-4-(1H-pyrazol-4-yl)phenyl)-3-((2-fluoro-5-methoxyphenyl)amino) pyrrolidin-2-one] yielded an IC50 of 10 to 100 nM. Compound `O=C1C(Cc2ccccc2)CCN1c1ccc(-c2cn[nH]c2)cc1` (centres unmarked) [Example 92, 1-(4-(1H-pyrazol-4-yl)phenyl)-3-benzylpyrrolidin-2-one] has an IC50 of 100 to 2200 nM. With `CCOc1cc(N2CCC(Nc3cccc(OC)c3)C2=O)ccc1-c1cn[nH]c1` (single isomer, unassigned) [Example 35, 1-(3-ethoxy-4-(1H-pyrazol-4-yl)phenyl)-3-((3-methoxyphenyl)amino)pyrrolidin-2-one] the IC50 was 10 to 100 nM. `O=C1C(NCc2cccc(F)c2)CCN1c1ccc(-c2cn[nH]c2)cc1` (centres unmarked) [Example 61, 1-(4-(1H-pyrazol-4-yl)phenyl)-3-((3-fluorobenzyl)amino)pyrrolidin-2-one, TFA] was tested, and the IC50 was 100 to 2200 nM. `CCc1nc(N2CCC(Nc3cccc(OC)c3)C2=O)ccc1-c1cn[nH]c1` (single isomer, unassigned) [Example 313, 1-(6-ethyl-5-(1H-pyrazol-4-yl)pyridin-2-yl)-3-((3-methoxyphenyl)amino) pyrrolidin-2-one] was tested, and the IC50 was < 10 nM. With `COc1nc(N2CCC(N3CCS(=O)(=O)CC3)C2=O)ccc1-c1cn[nH]c1` (racemic) [Example 280, 3-(1,1-dioxidothiomorpholino)-1-(6-methoxy-5-(1H-pyrazol-4-yl)pyridin-2-yl)pyrrolidin-2-one] the IC50 was 10 to 100 nM. For `COc1nc(N2CCC(Nc3cccc(NS(C)(=O)=O)c3)C2=O)ccc1-c1cn[nH]c1` (racemic) [Example 265, N-(3-((1-(6-methoxy-5-(1H-pyrazol-4-yl)pyridin-2-yl)-2-oxopyrrolidin-3-yl)amino)phenyl)methanesulfonamide], the IC50 was 10 to 100 nM. `COc1cccc(NC2CCN(c3ccc(-c4ccnc5[nH]ccc45)cc3)C2=O)c1` (single isomer, unassigned) [Example 81, 1-(4-(1H-pyrrolo[2,3-b]pyridin-4-yl)phenyl)-3-((3-methoxyphenyl)amino)pyrrolidin-2-one] showed an IC50 of 10 to 100 nM. Compound `CCc1nc(N2CCC(Nc3ccc(F)c(OCC4CC4)c3)C2=O)ccc1-c1cn[nH]c1` (single isomer, unassigned) [Example 212, 3-((3-(cyclopropylmelhoxy)-4-fluorophenyl)amino)-1-(6-ethyl-5-(1H-pyrazol-4-yl)pyridin-2-yl)pyrrolidin-2-one] has an IC50 of 100 to 2200 nM. With `O=C1C(Nc2cccc(OC(F)F)c2)CCN1c1ccc(-c2cn[nH]c2)cn1` (single isomer, unassigned) [Example 321, 1-(5-(1H-pyrazol-4-yl)pyridin-2-yl)-3-((3-(difluoromethoxy)phenyl)amino) pyrrolidin-2-one] the IC50 was 100 to 2200 nM. Work on `COc1nc(N2CCC(N3CCCC(F)C3)C2=O)ccc1-c1cn[nH]c1` (racemic) [Example 283, 3-(3-fluoropiperidin-1-yl)-1-(6-methoxy-5-(1H-pyrazol-4-yl)pyridin-2-yl)pyrrolidin-2-one hydrochloride] yielded an IC50 of 10 to 100 nM. With `COc1cccc(C2CCN(c3ccc(-c4cn[nH]c4)cc3)C2=O)c1` (centres unmarked) [Example 103, 1-(4-(1H-pyrazol-4-yl)phenyl)-3-(3-methoxyphenyl)pyrrolidin-2-one] the IC50 was < 10 nM. `COc1cccc(NC2CCN(c3ncc(-c4cn[nH]c4)cc3F)C2=O)c1` (single isomer, unassigned) [Example 357, 1-(3-fluoro-5-(1H-pyrazol-4-yl)pyridin-2-yl)-3-((3-methoxyphenyl)amino) pyrrolidin-2-one] was tested, and the IC50 was 100 to 2200 nM. Compound `COc1cccc(N[C@@H]2CCN(c3ccc(-c4cn[nH]c4)cc3)C2=O)c1OC` [Example 385, (R)-1-(4-(1H-pyrazol-4-yl)phenyl)-3-((2,3-dimethoxyphenyl)amino)pyrrolidin-2-one] has an IC50 of 100 to 2200 nM.
